PMC12365235, “Molecular mechanisms of thiazide-like diuretics-mediated inhibition of the human Na-Cl cotransporter” (Nature Communications, 2025)
Values joined by “and” are separate entries in the source; they are usually repeats but may differ in a detail not shown here. Identical values can stand only once.

Legend:
hNCC(WT) = molecular target: T1, hNCC(WT) (Homo sapiens, UniProt P55017); test: 125I- uptake assay, HEK293S cells stably expressing hNCC(WT); format: cell-based; details: for apparent affinity compared to polythiazide (times lower): hNCC(WT), Supplementary Fig. 2d
T1 construct: expressed in transfected cells
T1 sequence (P55017 1-1021): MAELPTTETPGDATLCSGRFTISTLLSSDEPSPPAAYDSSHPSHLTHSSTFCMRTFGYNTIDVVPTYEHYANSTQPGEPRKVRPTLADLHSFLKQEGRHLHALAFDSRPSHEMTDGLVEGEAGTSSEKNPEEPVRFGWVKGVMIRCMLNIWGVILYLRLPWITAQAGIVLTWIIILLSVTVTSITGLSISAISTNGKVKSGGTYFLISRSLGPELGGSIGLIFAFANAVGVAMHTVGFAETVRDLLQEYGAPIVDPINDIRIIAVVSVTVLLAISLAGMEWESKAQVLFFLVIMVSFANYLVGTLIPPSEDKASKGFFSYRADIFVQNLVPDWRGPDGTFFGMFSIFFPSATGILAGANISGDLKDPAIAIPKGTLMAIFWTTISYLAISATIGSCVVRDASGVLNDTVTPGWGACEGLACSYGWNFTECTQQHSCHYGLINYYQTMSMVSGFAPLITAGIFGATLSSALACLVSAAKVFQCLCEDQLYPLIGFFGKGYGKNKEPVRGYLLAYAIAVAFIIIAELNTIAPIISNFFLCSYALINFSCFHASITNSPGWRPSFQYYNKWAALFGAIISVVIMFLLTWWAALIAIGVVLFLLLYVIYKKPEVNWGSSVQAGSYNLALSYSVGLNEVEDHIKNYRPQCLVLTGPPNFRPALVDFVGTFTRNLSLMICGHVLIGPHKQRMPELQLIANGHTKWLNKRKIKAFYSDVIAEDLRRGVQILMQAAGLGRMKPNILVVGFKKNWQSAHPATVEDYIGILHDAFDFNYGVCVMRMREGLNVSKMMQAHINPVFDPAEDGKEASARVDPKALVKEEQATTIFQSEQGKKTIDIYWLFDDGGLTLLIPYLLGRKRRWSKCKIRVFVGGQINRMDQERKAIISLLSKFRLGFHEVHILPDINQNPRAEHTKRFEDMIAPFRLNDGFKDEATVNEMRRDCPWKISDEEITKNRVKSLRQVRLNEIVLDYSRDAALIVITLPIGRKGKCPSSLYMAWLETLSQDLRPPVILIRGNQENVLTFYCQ
Protocol: (§1) HEK293S cell lines, cultured in 293 Freestyle medium (Life Technologies; plus 10% fetal bovine serum), stably expressing hNCC and its variants were generated following published protocols. Cells were transfected using Lipofectamine 3000 (Invitrogen) with a pSBbi-RP-based plasmid containing hNCC or its variants and the SB100X vector. Puromycin (2 μg/mL; Gemini Bio-Products) was used for selection of stable cell lines.
(§2) To prepare for the uptake experiment, cells were plated at 0.5 × 10^6 cells/well in 24-well plates one day in advance. To activate NCC, cells were treated with a chloride-free hypotonic solution composed of 67.5 mM sodium-, 2.5 mM potassium-, 0.25 mM magnesium-, and 0.25 mM calcium-gluconate, as well as 7.5 mM HEPES pH 7.4 (buffered using Tris) at 37 °C for 10 min[72]. After the activation step, the experiments were carried out at room temperature. Ten minutes before the start of ^125I^− uptake, 70 μM Bumetanide (Thermo Scientific Chemicals) and 100 μM 4,4′-diisothiocyanatostilbene-2,2′-disulfonic acid (DIDS; Sigma) were added to suppress background iodide uptake activity. Indicated thiazide diuretics were also added to the indicated concentrations 10 min before the start of ^125I^− uptake. The original buffer was switched to an uptake buffer composed of 135 mM Na-gluconate, 5 mM K-gluconate, 1 mM Mg-gluconate, 1 mM Ca-gluconate, 70 μM bumetanide, 100 μM DIDS, 1 mM NaI, 0.25 μCi/ml Na^125I (American Radiolabeled Chemicals, Inc.), and 15 mM HEPES pH 7.4 (buffered using Tris), in the presence or absence of thiazide diuretics to initiate ^125I^− uptake. The ^125I^− uptake process lasted 1 h and was stopped by two rapid washes using ice-cold 110 mM MgCl2. Cells lysed using 1% sodium dodecyl sulfate (SDS) were analyzed by scintillation counting.
(§3) To calculate the fold change of the half-maximal inhibitory concentration (IC50) between hNCC(WT) and different hNCC variants, individual dose-response curves were normalized first using the smallest mean and the value of the lowest concentration as 0% and 100%, respectively. The normalized data were then fitted using the “EC50 shift” nonlinear regression in GraphPad Prism 10 with the shared EC50Control assigned to be the IC50 of hNCC(WT). The following constraints were used in the EC50 shift analysis. The EC50Control was set to be shared across all curves under analysis and constrained to be greater than 0. The EC50Ratio was constrained to be greater than 0. The bottom, top, and HillSlope were constrained to be 0, 100, and −1, respectively. For Fig. 1f, g and Supplementary Fig. 2d, GraphPad Prism 10 was used to perform curve fitting and IC50 calculation for normalized data using y = 100/(1 + (x/IC50)).

hNCC(V231M) = test: 125I- uptake assay, hNCC(V231M) variant; format: cell-based, human; details: V231M polymorphism
Protocol: as §1, §2, §3

[1] = thiazide-sensitive iodide uptake, HEK293S stable cells, 1 mM extracellular iodide

Row | Compound | IC50 (hNCC(WT); as quoted in reviewer comment on the earlier manuscript version) | apparent affinity compared to polythiazide (times lower) (hNCC(WT)) | sensitivity relative to hNCC(WT) (fold lower) (hNCC(V231M)) | IC50 (hNCC(WT); [1])
1 | CC1Cc2ccccc2N1NC(=O)c1ccc(Cl)c(S(N)(=O)=O)c1 (centres unmarked) [indapamide] | 9.3 nM | ~ 16 times | 2 fold | 
2 | NS(=O)(=O)c1cc(C2(O)NC(=O)c3ccccc32)ccc1Cl (centres unmarked) [chlorthalidone] |  | ~ 40 times | 3 fold | 23 nM
3 | CN1C(CSCC(F)(F)F)Nc2cc(Cl)c(S(N)(=O)=O)cc2S1(=O)=O (centres unmarked) [polythiazide] |  |  | nearly as sensitive as the wild-type | 0.58 nM and ~0.5 nM
